Results on 26 compounds are retold here after patent US8445505B2 (IRM LLC, priority 2008, dated 2013).

The target of the assay is IGF1R Ba/F3 (Homo sapiens, UniProt P08069). As to the kind of experiment: Ba/F3 Cell Viability Inhibition Assay (Tel-TK transformed Ba/F3 lines). Conditions: Tel-TK (IGF1R) transformed Ba/F3 cells, 48 hours incubation, cell viability (Britelite luminescence). Set-up: the printed alternative. The assay is classed as cell-based, murine. The text has this:
Ba/F3 is a murine IL-3-dependent pro-B lymphoma cell line. Parental Ba/F3 cells are used to generate a panel of sublines whose proliferation and survival is rendered IL-3-independent by stable transduction with individual tyrosine kinases activated by fusion with the amino-terminal portion of TEL (amino acid 1-375) or BCR. In order to generate Ba/F3 cell lines transformed by Tel-Tyrosine Kinase (TK) fusions, parental Ba/F3 cells are infected with a retrovirus harboring each TEL-fusion kinase and subjected to puromycin selection and IL-3 withdrawal to obtain IL-3-independent, transformed Ba/F3 cells.
Each transformed Ba/F3 cells are cultured in RPMI-1640 media (Gibco Cat #11875093, Carlsbad, Calif.) supplemented with 10% FBS (Hyclone Cat #SV30014.03, Logan, Utah), 4.5 g/L glucose (Sigma #G5400, St.Louis, Mo.), 1.5 g/L sodium bicarbonate (Biowhittaker #17-613E, Walkersville, Md.) and Pen/Strep (Gibco #10378-016, Carlsbad, Calif.). Cells are splitted twice weekly.
The potency of test compounds against various Tel-TK transformed Ba/F3 lines is determined as follows. Exponentially growing BaF3 Tel-TK cells are diluted in fresh medium to 75,000 cells/mL and seeded into 384-well plates (3750 cells/well) at 50 μL/well using a gill liquid dispenser (BioTek, Winooski, Vt., USA). Duplicate plates are run for each cell line. Test and control compounds are serially diluted with DMSO and arrayed in a polypropylene 384-well plate. 50 nL of compound is transferred into the assay plates using a pin-transfer device, and the plates are incubated at 37° C. (5% CO2) for 48 hours. 25 μL Britelite (Perkin Elmer) is added and luminescence is quantified using Analyst GT (Molecular Devices). Custom curve-fitting software is used to produce a logistic fit of percent cell viability as a function of the logarithm of inhibitor concentration. The IC50 is interpolated as the concentration of compound needed to reduce cell viability to 50% of a DMSO control. Parental Ba/F3 cells that are maintained and cultured in presence of IL-3 (1 ng/ml in final) are diluted in fresh medium containing IL-3 (1 ng/ml in final) to 75,000 cells/mL following the same procedure as described above.

In general, IC50 refers to the concentration needed to halve the response being measured.

IGF1R Ba/F3, sequence (P08069 999-1274 limits assumed): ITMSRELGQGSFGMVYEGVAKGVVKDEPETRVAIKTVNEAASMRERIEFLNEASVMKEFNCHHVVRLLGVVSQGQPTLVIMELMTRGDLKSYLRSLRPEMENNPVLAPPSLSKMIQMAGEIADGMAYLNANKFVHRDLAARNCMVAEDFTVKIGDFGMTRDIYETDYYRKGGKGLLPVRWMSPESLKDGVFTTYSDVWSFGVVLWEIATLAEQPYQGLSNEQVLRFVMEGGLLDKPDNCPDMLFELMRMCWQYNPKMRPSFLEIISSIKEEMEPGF

In the case of `Cc1cc(Nc2nc(Nc3cc(C)c([C@H]4CC[C@@H](N5CCCCC5)CC4)cc3C)ncc2C(F)(F)F)n[nH]1` [Compound 60, N2-(2,5-dimethyl-4-((cis)-4-(piperidin-1-yl)cyclohexyl)phenyl)-N4-(5-methyl-1H-pyrazol-3-yl)-5-(trifluoromethyl)pyrimidine-2,4-diamine], half-maximal inhibition (IC50) required 4 nM.

As for `Cc1cc(Nc2nc(Nc3cc(C)c([C@H]4CC[C@H](N5CCN(C)CC5)CC4)cc3F)ncc2Cl)[nH]n1` [Compound 53, Trans-5-chloro-N2-(2-fluoro-5-methyl-4-(4-(4-methylpiperazin-1-yl)cyclohexyl)phenyl)-N4-(5-methyl-1H-pyrazol-3-yl)pyrimidine-2,4-diamine], the IC50 is 25 nM.

In turn, `Cc1cc(Nc2nc(Nc3cc(C)c(C4CCC(=NO)CC4)cc3C)ncc2Cl)n[nH]1` (centres unmarked) [Compound 33, 4-(4-(5-chloro-4-(5-methyl-1H-pyrazol-3-ylamino)pyrimidin-2-ylamino)-2,5-dimethylphenyl)cyclohexanone oxime] came in with an IC50 of 15 nM. Compared with the last compound, the IC50 is about 1.7-fold lower.

In turn, `Cc1cc(Nc2nc(Nc3cc(C)c(C(=O)N(C)C)cc3C)ncc2Cl)n[nH]1` [Compound 30, 4-(5-chloro-4-(5-methyl-1H-pyrazol-3-ylamino)pyrimidin-2-ylamino)-N,N,2,5-tetramethylbenzamide] yielded an IC50 of 539 nM.

`Cc1cc(Nc2nc(Nc3cc(C)c([C@H]4CC[C@@H](N5CCOCC5)CC4)cc3F)ncc2Cl)n[nH]1` [Compound 51, Cis-5-chloro-N2-(2-fluoro-5-methyl-4-(4-morpholinocyclohexyl)phenyl)-N4-(5-methyl-1H-pyrazol-3-yl)pyrimidine-2,4-diamine] gave an IC50 of 400 nM.

In turn, `CNC(=O)c1ccc(-c2cc(C)c(Nc3ncc(Cl)c(Nc4cc(C)[nH]n4)n3)cc2C)cn1` [Compound 14, 5-(4-(5-chloro-4-(5-methyl-1H-pyrazol-3-ylamino)pyrimidin-2-ylamino)-2,5-dimethylphenyl)-N-methylpicolinamide] returned an IC50 of 15 nM.

The compound `Cc1cc(Nc2nc(Nc3ccc(C4CCNCC4)c4ccccc34)ncc2Cl)n[nH]1` [Compound 85, 5-chloro-N^4-(5-methyl-1H-pyrazol-3-yl)-N^2-(4-(piperidin-4-yl)naphthalene-1-yl)pyrimidine-2,4-diamine] came in with an IC50 of 493 nM.

Take `CO/N=C(\C)c1cc(C)c(Nc2ncc(Cl)c(Nc3cc(C)[nH]n3)n2)cc1C` [Compound 34, 1-(4-(5-chloro-4-(5-methyl-1H-pyrazol-3-ylamino)pyrimidin-2-ylamino)-2,5-dimethylphenyl)ethanone O-methyl oxime]: half-maximal inhibition (IC50) required 269 nM.

Compound `Cc1cc(Nc2nc(Nc3cc(C)c([C@H]4CC[C@H](O)CC4)cc3F)ncc2Cl)n[nH]1` [Compound 72, Trans-4-(4-(5-chloro-4-(5-methyl-1H-pyrazol-3-ylamino)pyrimidin-2-ylamino)-5-fluoro-2-methylphenyl)cyclohexanol] yielded an IC50 of 99 nM. Against the preceding compound, the IC50 is about 2.7-fold lower.

As to `CCN(CC)[C@H]1CC[C@H](c2cc(F)c(Nc3ncc(Cl)c(Nc4cc(C)[nH]n4)n3)cc2C)CC1` [Compound 57, 5-chloro-N2-(4-((trans)-4-(diethylamino)cyclohexyl)-2-fluoro-5-methylphenyl)-N4-(5-methyl-1H-pyrazol-3-yl)pyrimidine-2,4-diamine], the IC50 stood at 31 nM.

`Cc1cc(Nc2nc(Nc3cc(F)c(-c4cnn(C)c4)cc3C)ncc2Cl)n[nH]1` [Compound 27, 5-chloro-N2-(5-fluoro-2-methyl-4-(1-methyl-1H-pyrazol-4-yl)phenyl)-N4-(5-methyl-1H-pyrazol-3-yl)pyrimidine-2,4-diamine] yielded a half-inhibitory concentration (IC50) of 549 nM. Against the preceding compound, the IC50 is about 18-fold higher.

The compound `C/C(=N\OCCN(C)C)c1cc(C)c(Nc2ncc(Cl)c(Nc3cc(C)[nH]n3)n2)cc1C` [Compound 35, 1-(4-(5-chloro-4-(5-methyl-1H-pyrazol-3-ylamino)pyrimidin-2-ylamino)-2,5-dimethylphenyl)ethanone O-2-(dimethylamino)ethyl oxime] displayed an IC50 of 121 nM.

Take `CNC(=O)CN1CCC(c2ccc(Nc3ncc(Cl)c(Nc4cc(C)[nH]n4)n3)c3ccccc23)CC1` [Compound 87, 2-(4-(4-(5-chloro-4-(5-methyl-1H-pyrazol-3-ylamino)pyrimidin-2-ylamino)naphthalen-1-yl)piperidin-1-yl)-N-methylacetamide]: the IC50 was determined as 82 nM.

Compound `Cc1cc(Nc2nc(Nc3cc(C)c([C@H]4CC[C@@H](N5CCCCC5)CC4)cc3F)ncc2Cl)n[nH]1` [Compound 48, Cis-5-chloro-N2-(2-fluoro-5-methyl-4-(4-(piperidin-1-yl)cyclohexyl)phenyl)-N4-(5-methyl-1H-pyrazol-3-yl)pyrimidine-2,4-diamine] came in with an IC50 of 21 nM.

`Cc1cc(Nc2nc(Nc3cc4c(cc3F)CNC4=O)ncc2Cl)n[nH]1` [Compound 82, 6-(5-chloro-4-(5-methyl-1H-pyrazol-3-ylamino)pyrimidin-2-ylamino)-5-fluoroisoindolin-1-one] displayed an IC50 of 2630 nM.

In the case of `Cc1cc(Nc2nc(Nc3cc(C)c(C(=O)N4CCOCC4)cc3C)ncc2Cl)n[nH]1` [Compound 32, (4-(5-chloro-4-(5-methyl-1H-pyrazol-3-ylamino)pyrimidin-2-ylamino)-2,5-dimethylphenyl)(morpholino)methanone], 451 nM corresponded to half-maximal inhibition (IC50).

In the case of `Cc1cc(Nc2nc(Nc3cc(C)c([C@H]4CC[C@H](N5CCNCC5)CC4)cc3F)ncc2Cl)n[nH]1` [Compound 59, 5-chloro-N2-(2-fluoro-5-methyl-4-((trans)-4-(piperazin-1-yl)cyclohexyl)phenyl)-N4-(5-methyl-1H-pyrazol-3-yl)pyrimidine-2,4-diamine], the midpoint of inhibition, the IC50, lay at 39 nM.

For the compound `Cc1ccc(-c2cc(C)c(Nc3ncc(Cl)c(Nc4cc(C)[nH]n4)n3)cc2C)cn1` [Compound 16, 5-chloro-N2-(2,5-dimethyl-4-(6-methylpyridin-3-yl)phenyl)-N4-(5-methyl-1H-pyrazol-3-yl)pyrimidine-2,4-diamine], the IC50 is 30 nM.

The compound `Cc1cc(Nc2nc(Nc3cc(C)c([C@H]4CC[C@@H](N5CCNCC5)CC4)cc3F)ncc2Cl)n[nH]1` [Compound 58, 5-chloro-N2-(2-fluoro-5-methyl-4-((cis)-4-(piperazin-1-yl)cyclohexyl)phenyl)-N4-(5-methyl-1H-pyrazol-3-yl)pyrimidine-2,4-diamine] displayed an IC50 of 17 nM.

Compound `Cc1cc2c(Nc3ncc(Cl)c(Nc4cc(C)[nH]n4)n3)cccc2nn1` [Compound 83, 5-chloro-N4-(5-methyl-1H-pyrazol-3-yl)-N2-(3-methylcinnolin-5-yl)pyrimidine-2,4-diamine] yielded an IC50 of 1450 nM.

As for `Cc1cc(Nc2nc(Nc3cc4c(cc3F)CN(C3CCNCC3)C4=O)ncc2Cl)no1` [Compound 80, 6-(5-chloro-4-(5-methylisoxazol-3-ylamino)pyrimidin-2-ylamino)-5-fluoro-2-(piperidin-4-yl)isoindolin-1-one], the IC50 was 2650 nM.

As to `Cc1cc(Nc2nc(Nc3cc(C)c([C@H]4CC[C@@H](N5CCOCC5)CC4)cc3C)ncc2Cl)n[nH]1` [Compound 38, 5-chloro-N^2-(2,5-dimethyl-4-(4-cis-morpholinocyclohexyl)phenyl)-N^4-(5-methyl-1H-pyrazol-3-yl)pyrimidine-2,4-diamine], half-maximal inhibition (IC50) was put at 9 nM.

`Cc1cc(Nc2nc(Nc3cc(C)c(-c4ccc(O)nc4)cc3F)ncc2Cl)n[nH]1` [Compound 8, 5-(4-(5-chloro-4-(5-methyl-1H-pyrazol-3-ylamino)pyrimidin-2-ylamino)-5-fluoro-2-methylphenyl)pyridin-2-ol] gave an IC50 of 55 nM.

For `Cc1cc(Nc2nc(Nc3cc(C)c([C@H]4CC[C@H](N5CC[C@H](O)C5)CC4)cc3F)ncc2Cl)n[nH]1` [Compound 55, (S)-1-((Trans)-4-(4-(5-chloro-4-(5-methyl-1H-pyrazol-3-ylamino)pyrimidin-2-ylamino)-5-fluoro-2-methylphenyl)cyclohexyl)pyrrolidin-3-ol], the IC50 is 32 nM.

In turn, `Cc1cc(Nc2nc(Nc3cc(C)c([C@H]4CC[C@H](N5CCCCC5)CC4)cc3F)ncc2Cl)n[nH]1` [Compound 49, Trans-5-chloro-N2-(2-fluoro-5-methyl-4-(4-(piperidin-1-yl)cyclohexyl)phenyl)-N4-(5-methyl-1H-pyrazol-3-yl)pyrimidine-2,4-diamine] registered an IC50 of 40 nM.

On to `Cc1cc(Nc2nc(Nc3cc(C)c(-c4ncc[nH]4)cc3C)ncc2Cl)n[nH]1` [Compound 17, N2-(4-(1H-imidazol-2-yl)-2,5-dimethylphenyl)-5-chloro-N4-(5-methyl-1H-pyrazol-3-yl)pyrimidine-2,4-diamine], for which inhibition was half-maximal at 68 nM (IC50).
